# In ChEMBL document CHEMBL1148772, “Inhibition of Mycobacterium tuberculosis, Mycobacterium bovis, and Mycobacterium avium by novel dideoxy nucleosides” (J Med Chem, 2007):
# Experiments:
# Format in all cases: functional
# Conditions in all cases: variant bovis BCG
# [1] = test system: Mycobacterium tuberculosis; experiment: Antimycobacterial activity against Mycobacterium bovis BCG at 100 uM by microplate alamar blue assay
# [2] = test system: Mycobacterium tuberculosis; experiment: Antimycobacterial activity against Mycobacterium bovis BCG at 10 uM by microplate alamar blue assay
# [3] = test system: Mycobacterium tuberculosis; experiment: Antimycobacterial activity against Mycobacterium bovis BCG by microplate alamar blue assay
# [4] = test system: Mycobacterium tuberculosis; experiment: Antimycobacterial activity against Mycobacterium bovis BCG at 50 uM by microplate alamar blue assay
# [5] = test system: Mycobacterium tuberculosis; experiment: Antimycobacterial activity against Mycobacterium bovis BCG at 1 uM by microplate alamar blue assay
Compound,inhibition at 100 µM [1] [%],inhibition at 10 µM [2] [%],MIC90 [3] [µg/mL],inhibition at 50 µM [4] [%],inhibition at 1 µM [5] [%]
Nc1nc(=O)n([C@H]2CC[C@@H](CO)O2)cc1Br,70,50,–,–,–
CCCCCCCCCC#Cc1cn([C@H]2CC[C@@H](CO)O2)c(=O)[nH]c1=O,100,100,1,100,80
CCCCCCCCCCCC#Cc1cn([C@H]2CC[C@@H](CO)O2)c(=O)[nH]c1=O,100,100,1,100,60
O=c1[nH]c(=O)n([C@H]2CC[C@@H](CO)O2)cc1C#Cc1ccccc1,25,–,–,25,–
O=c1[nH]c(=O)n([C@H]2CC[C@@H](CO)O2)cc1Br,0,–,–,–,–
CCCC#Cc1cn([C@H]2CC[C@@H](CO)O2)c(=O)[nH]c1=O,50,–,–,–,–
Nc1ncnc2c1ncn2[C@H]1CC[C@@H](CO)O1,0,–,–,–,–
CC(=O)OC[C@@H]1CC[C@H](n2ccc(=O)[nH]c2=O)O1,0,–,–,–,–
O=c1[nH]c(=O)n([C@H]2CC[C@@H](CO)O2)cc1Cl,0,–,–,–,–
CCCc1ccc(C#Cc2cn([C@H]3C[C@H](F)[C@@H](CO)O3)c(=O)[nH]c2=O)cc1,100,50,50,100,–
CCCCCCCCCCCCC#Cc1cn(C2CC(F)C(CO)O2)c(=O)[nH]c1=O (stereo not drawn),100,100,1,100,–
CCSc1nc(N)nc2c1ncn2[C@H]1CC[C@@H](CO)O1,100,40,10,100,–
CC(=O)OC[C@@H]1CC[C@H](n2cc(Cl)c(=S)[nH]c2=O)O1,100,–,50,70,–
CCCCCC#Cc1cn([C@H]2C[C@H](F)[C@@H](CO)O2)c(=O)[nH]c1=O,100,50,50,50,–
CCCCCCCCC#Cc1cn([C@H]2C[C@H](F)[C@@H](CO)O2)c(=O)[nH]c1=O,100,60,10,100,–
CCCCCCCCCCC#Cc1cn([C@H]2C[C@H](F)[C@@H](CO)O2)c(=O)[nH]c1=O,100,75,10,100,–

Compound,inhibition at 100 µM [1] [%],inhibition at 10 µM [2] [%],MIC90 [3] [µg/mL],inhibition at 50 µM [4] [%],inhibition at 1 µM [5] [%]
N#Cc1cn(C2CCC(CO)O2)c2ncnc(N)c12 (stereo not drawn),50,–,–,40,–
CCCCCCCCCCCC#Cc1cn([C@H]2C[C@H](F)[C@@H](CO)O2)c(=O)[nH]c1=O,100,75,10,100,–
CCCCCCCCC#Cc1cn([C@H]2CC[C@@H](CO)O2)c(=O)[nH]c1=O,100,100,1,100,50
Nc1nc(=O)n([C@H]2CC[C@@H](CO)O2)cc1I,0,–,–,–,–
CC(=O)OC[C@@H]1CC[C@H](n2cc(Cl)c(=O)[nH]c2=O)O1,0,–,–,–,–
Cc1cn([C@H]2CC[C@@H](CO)O2)c(=O)nc1N,50,50,–,50,–
NC(=O)c1cn([C@H]2CC[C@@H](CO)O2)c2ncnc(N)c12,25,–,–,25,–
Nc1nc(F)c2ccn([C@H]3CC[C@@H](CO)O3)c2n1,50,30,–,50,–
O=c1[nH]c(=S)c(Cl)cn1[C@H]1CC[C@@H](CO)O1,100,–,50,50,–
CCCCCCCCCCCCC#Cc1cn([C@H]2CC[C@@H](CO)O2)c(=O)[nH]c1=O,100,100,1,100,50
Nc1nc(N)c2ncn([C@H]3CC[C@@H](CO)O3)c2n1,50,–,–,50,–
Nc1nc(O)c2ncn([C@H]3CC[C@@H](CO)O3)c2n1,0,–,–,–,–
Nc1ccn([C@@H]2CS[C@H](CO)O2)c(=O)n1 [LAMIVUDINE],0,–,–,–,–
COc1nc(N)nc2c1ncn2[C@H]1CC[C@@H](CO)O1 [METACAVIR],25,–,–,25,–
CO[C@H]1/C=C/O[C@@]2(C)Oc3c(C)c(O)c4c(O)c(c(/C=N/N5CCN(C)CC5)c(O)c4c3C2=O)NC(=O)/C(C)=C\C=C\[C@H](C)[C@H](O)[C@@H](C)[C@@H](O)[C@@H](C)[C@H](OC(C)=O)[C@@H]1C [RIFAMPIN],–,–,0.5,–,–
Nc1ccn([C@H]2CC[C@@H](CO)O2)c(=O)n1 [ZALCITABINE],0,–,–,–,–
